According to PMC8464836 (Biomolecules, 2021):

What was measured:
[1] = target: T1, dopamine receptor (D2) wild type (D2Rs) (Homo sapiens, UniProt P14416); assay: D2R competition binding with [3H]-spiperone on membranes of transfected CHO cells; settings: for Ki: D2Rs, competition with 180 pM [3H]-spiperone, mean ± SEM, n = 3; for IC50: Table S1, D2Rs, mean ± S.E.M. of 3 independent experiments in triplicate, read-out: IC50 in µM ± SEM
T1 construct: host or cells: CHO cells, transient PEI transfection; membranes prepared 48 h after transfection
Description: Chinese hamster ovary cells (CHO cells) were used for the binding experiments. About 24 h before transfection, CHO cells were plated on a 10 cm Petri dish at a density of 1.5 × 10^6 cells and cultivated in 10 mL DMEM/Ham’s F12 supplemented with 10% heat-inactivated fetal bovine serum (FBS).
For transfection, the desired amount of linear polyethyleneimine (PEI) 25_K (Polysciences, Eppelheim, Germany) and DNA (dopamine receptor (D2) wild type, cDNA resource centre, Bloomsberg, PA, USA) were diluted separately in phosphate buffer saline (PBS). After 20 min, DNA was added to PEI solution, mixed and left for an additional 30 min. Final concentration of reactants was 6 µg plasmid DNA and 18 µg PEI per ml. PEI/DNA complex was added (1 mL/dish) and the plates were incubated for another 24 h. Then, the medium was replaced with fresh DMEM/Ham’s F12 with 10% FBS and incubated for an additional 24 h. Cells were maintained at 37 °C in a 5% CO2-humidified atmosphere.
About 48 h after transfection, cells were washed with PBS, mechanically detached from the dish with a plastic scraper in the ice-cold PBS, and centrifuged for 3 min at 250× g. Pellet was suspended in the ice-cold homogenization medium (100 mM NaCl, 20 mM Na-HEPES, 10 mM EDTA, pH 7.4) and homogenized on ice by two 30-s strokes using Polytron homogenizer (Ultra-Turrax; Janke & Kunkel GmbH & Co. KG, IKA-Labortechnik, Staufen, Germany) with a 30-s pause between strokes. Cell homogenates were centrifuged for 5 min at 1000× g. The supernatant was collected and centrifuged for 30 min at 30,000× g. Pellets were suspended in incubation medium (100 mM NaCl, 20 mM Na-HEPES, 10 mM MgCl2, pH 7.4), left for 30 min at 4 °C and centrifuged again for 30 min at 30,000× g. The membrane pellets were kept at −80 °C until use.
All radioligand binding experiments were optimized and carried out as described by El-Fakahany and Jakubik. […] Saturation experiments were performed in 800 μL volume containing: 400 μL of the membrane suspension and 400 μL of the radioligand in six increasing concentrations (ranging from 31 to 1000 pM).
The examined compounds were diluted in incubation buffer and tested in six concentrations (ranging from 0.1 nM–1 mM). The reactions were performed in 400 µL volume containing: 100 µL of the radioligand, 100 µL of tested substances dilution, and 200 µL of the membranes.
Nonspecific binding was determined in the presence of 10 μM unlabeled sulpiride. Membrane suspensions from both saturation and binding experiments (approximately 10 μg of membrane proteins per sample) were incubated in 96-well plates for 1 h at 25 °C in the incubation medium (100 mM NaCl, 20 mM Na-HEPES,10 mM MgCl2, pH = 7.4) in a shaking incubator (25 °C; PST-60HL, Biosan, Riga, Latvia).
The binding reactions were terminated by filtration of the membranes through APFC filter plate (Millipore, Prague, Czech Republic) pre-soaked with 0.5% PEI and washed with ice-cold distilled water using a Brandel cell harvester (Brandel, Gaithersburg, MD, USA). Then, filters with labelled membranes were dried. After 24 h, scintillation cocktail (Rotiszint eco plus, Carl Roth) was added to each sample and radioactivity was quantified by liquid scintillation spectrometry using Wallac Microbeta scintillation counter (Wallac, Turku, Finland). Competition binding experiments were performed per triplicate and all experiments were performed three times. Protein concentration was determined by the Lowry method in the Peterson modification.

CHO-K1 cells = assay: MTT assay on CHO-K1 cells; type: cell-based, Chinese hamster; settings: Cricetulus griseus, cell viability, 24 h exposure, mean ± SEM, n = 3
Description: Standard MTT (3-[4,5-dimethylthiazol-2-yl]-2,5-diphenyltetrazolium bromide) assay (Sigma Aldrich, Prague, Czech Republic) was used according to the manufacturer´s protocol on the CHO-K1 (Chinese hamster ovary, ECACC, Salisbury, UK) in order to compare the effect of different compounds within the series. The cells were cultured according to ECACC recommended conditions and seeded in a density of 8000 per well as described previously. […] Cells were exposed to a tested compound for 24 h. Then the medium was replaced by a medium containing 10 μM of MTT and cells were allowed to produce formazan for another approximately 3 h under surveillance. Thereafter, medium with MTT was sucked out and crystals of formazan were dissolved in DMSO (100 µL). Cell viability was assessed spectrophotometrically by the amount of formazan produced. Absorbance was measured at 570 nm with 650 nm reference wavelength on Synergy HT (BioTek, Winooski, VT, USA). IC50 was then calculated from the control-subtracted triplicates using non-linear regression (four parameters) of GraphPad Prism 9 software. Final IC50 and SEM values were obtained as a mean of three independent measurements.

[2] = PAMPA assay (Polar Brain Lipid membrane); settings: for CNS (+/−): BBB permeability class predicted from PAMPA Pe; for Papp: PAMPA, pH 7.4
Description: In this study, it has been used as a non-cell-based in vitro assay carried out in a coated 96-well membrane filter. The filter membrane of the donor plate was coated with PBL (Polar Brain Lipid, Avanti, AL, USA) in dodecane (4 µL of 20 mg/mL PBL in dodecane) and the acceptor well was filled with 300 µL of PBS pH 7.4 buffer (VA tested compounds were dissolved first in the DMSO/phosphate-buffered saline mixture (maximum 0.5% v/v of DMSO) and subsequently diluted with phosphate-buffered saline (pH 7.4) to final concentrations of 40–100 μM in the donor wells). […] About 300 µL of the donor solution was added to the donor wells (VD) and the donor filter plate was carefully put on the acceptor plate so that coated membrane was “in touch” with both donor solution and acceptor buffer. Test compound diffused from the donor well through the lipid membrane (Area = 0.28 cm^2) to the acceptor well. The concentration of the drug in both donor and the acceptor wells were assessed after 3, 4, 5, and 6 h of incubation in quadruplicate using the UV plate reader Synergy HT (Biotek, Winooski, VT, USA) at the maximum absorption wavelength of each compound. Besides that, solution of theoretical compound concentration, simulating the equilibrium state established if the membrane were ideally permeable was prepared and assessed as well. Concentration of the compounds in the donor and acceptor well and equilibrium concentration were calculated from the standard curve and expressed as the permeability (Pe) according to the equation:(4) Pe=C×ln(1−[drug] acceptor/[drug] equilibrium) where C=(VD×VA)/(VD×VA) Area×Time

D2Rs = settings: Figure 1; cited from earlier work
D3Rs = settings: Figure 1; cited from earlier work

T1 sequence (P14416 whole entry): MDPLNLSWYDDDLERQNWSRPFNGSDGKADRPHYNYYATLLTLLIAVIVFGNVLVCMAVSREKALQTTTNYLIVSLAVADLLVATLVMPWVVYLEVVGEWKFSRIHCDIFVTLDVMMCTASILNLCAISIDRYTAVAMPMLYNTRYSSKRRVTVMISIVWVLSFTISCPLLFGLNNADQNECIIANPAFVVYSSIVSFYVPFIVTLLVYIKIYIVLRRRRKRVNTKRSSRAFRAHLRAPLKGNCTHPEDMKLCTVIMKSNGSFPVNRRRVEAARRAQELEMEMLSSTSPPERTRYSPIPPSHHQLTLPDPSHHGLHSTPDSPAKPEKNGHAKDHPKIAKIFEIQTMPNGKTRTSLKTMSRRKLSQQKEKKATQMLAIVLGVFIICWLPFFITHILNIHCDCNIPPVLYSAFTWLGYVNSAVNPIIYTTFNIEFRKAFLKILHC

Row | Structure (SMILES) | Ki [1] [µM] | IC50 [1] [µM] | IC50 (CHO-K1 cells) [mM] | CNS (+/−) [2] | Papp [2] [×10⁻⁶ cm/s] | pKi for D2Rs (D2Rs) | pKi for D3Rs (D3Rs) | Ki (D2Rs) [nM]
1 | O=C1CCc2ccccc2N1CCCN1CCCC1 [5a, 1-(3-(Pyrrolidin-1-yl)propyl)-3,4-dihydroquinolin-2(1H)-one] | 24 ± 5.8 | 98 ± 23 | 2 ± 0.8 | CNS + (CNS + (high BBB permeability predicted), Pe (10^−6 cm∙s^−1) > 4.0) | 7.3 ± 0.8 | – | – | –
2 | O=C1CCc2ccccc2N1CCCN1CCCCC1 [5b, 1-(3-(Piperidin-1-yl)propyl)-3,4-dihydroquinolin-2(1H)-one] | 9.7 ± 1.6 | 39 ± 6.4 | 1.5 ± 0.3 | CNS + (CNS + (high BBB permeability predicted), Pe (10^−6 cm∙s^−1) > 4.0) | 13 ± 0.1 | – | – | –
3 | CN1CCN(CCCN2C(=O)CCc3ccccc32)CC1 [5c, 1-(3-(4-Methylpiperazin-1-yl)propyl)-3,4-dihydroquinolin-2(1H)-one] | 12 ± 3.2 | 49 ± 13 | 2 ± 1 | CNS + (CNS + (high BBB permeability predicted), Pe (10^−6 cm∙s^−1) > 4.0) | 7 ± 0.4 | – | – | –
4 | O=C1CCc2ccccc2N1CCCN1CCOCC1 [5d, 1-(3-Morpholinopropyl)-3,4-dihydroquinolin-2(1H)-one] | 20 ± 1.6 | 80 ± 6.3 | 1.1 ± 0.3 | CNS + (CNS + (high BBB permeability predicted), Pe (10^−6 cm∙s^−1) > 4.0) | 12 ± 2 | – | – | –
5 | O=C1CCc2ccccc2N1CCCN1CCSCC1 [5e, 1-(3-Thiomorpholinopropyl)-3,4-dihydroquinolin-2(1H)-one] | 7.6 ± 1.9 | 30 ± 7.7 | 0.5 ± 0.1 | CNS + (CNS + (high BBB permeability predicted), Pe (10^−6 cm∙s^−1) > 4.0) | 24 ± 2.1 | – | – | –
6 | CCN(CC)CCCN1C(=O)CCc2ccccc21 [5f, 1-(3-(Diethylamino)propyl)-3,4-dihydroquinolin-2(1H)-one] | 37 ± 8.6 | 150 ± 34 | 0.9 ± 0.2 | CNS + (CNS + (high BBB permeability predicted), Pe (10^−6 cm∙s^−1) > 4.0) | 9.4 ± 0.4 | – | – | –
7 | COCCN(C)CCCN1C(=O)CCc2ccccc21 [5g, 1-(3-((2-Methoxyethyl)(methyl)amino)propyl)-3,4-dihydroquinolin-2(1H)-one] | 26 ± 6.1 | 106 ± 24 | 1.5 ± 0.5 | CNS + (CNS + (high BBB permeability predicted), Pe (10^−6 cm∙s^−1) > 4.0) | 10 ± 1.6 | – | – | –
8 | O=C1CCc2ccccc2N1CCCCN1CCCC1 [6a, 1-(4-(Pyrrolidin-1-yl)butyl)-3,4-dihydroquinolin-2(1H)-one] | 23 ± 3.6 | 93 ± 14 | 1.1 ± 0.2 | CNS + (CNS + (high BBB permeability predicted), Pe (10^−6 cm∙s^−1) > 4.0) | 7.7 ± 1.8 | – | – | –
9 | O=C1CCc2ccccc2N1CCCCN1CCCCC1 [6b, 1-(4-(Piperidin-1-yl)butyl)-3,4-dihydroquinolin-2(1H)-one] | 14 ± 2.5 | 57 ± 10 | 0.8 ± 0.2 | CNS + (CNS + (high BBB permeability predicted), Pe (10^−6 cm∙s^−1) > 4.0) | 10 ± 1.4 | – | – | –
10 | CN1CCN(CCCCN2C(=O)CCc3ccccc32)CC1 [6c, 1-(4-(4-Methylpiperazin-1-yl)butyl)-3,4-dihydroquinolin-2(1H)-one] | 21 ± 0.6 | 82 ± 2.3 | 1.2 ± 0.2 | CNS + (CNS + (high BBB permeability predicted), Pe (10^−6 cm∙s^−1) > 4.0) | 7.1 ± 1.2 | – | – | –
11 | O=C1CCc2ccccc2N1CCCCN1CCOCC1 [6d, 1-(4-Morpholinobutyl)-3,4-dihydroquinolin-2(1H)-one] | 41 ± 14 | 166 ± 56 | 1.3 ± 0.2 | CNS + (CNS + (high BBB permeability predicted), Pe (10^−6 cm∙s^−1) > 4.0) | 17 ± 2.1 | – | – | –
12 | O=C1CCc2ccccc2N1CCCCN1CCSCC1 [6e, 1-(4-Thiomorpholinobutyl)-3,4-dihydroquinolin-2(1H)-one] | 9.7 ± 2.3 | 40 ± 8.2 | 0.8 ± 0.1 | CNS + (CNS + (high BBB permeability predicted), Pe (10^−6 cm∙s^−1) > 4.0) | 23 ± 3.3 | – | – | –
13 | CCN(CC)CCCCN1C(=O)CCc2ccccc21 [6f, 1-(4-(Diethylamino)butyl)-3,4-dihydroquinolin-2(1H)-one] | 27 ± 4.7 | 103 ± 19 | 1.8 ± 0.3 | CNS + (CNS + (high BBB permeability predicted), Pe (10^−6 cm∙s^−1) > 4.0) | 7.4 ± 0.9 | – | – | –
14 | COCCN(C)CCCCN1C(=O)CCc2ccccc21 [6g, 1-(4-((2-Methoxyethyl)(methyl)amino)butyl)-3,4-dihydroquinolin-2(1H)-one] | 45 ± 11 | 188 ± 38 | 2.1 ± 0.8 | CNS + (CNS + (high BBB permeability predicted), Pe (10^−6 cm∙s^−1) > 4.0) | 9.5 ± 1.1 | – | – | –
15 | NS(=O)(=O)c1cc2c(cc1Cl)N=CNS2(=O)=O [Chlorothiazide, reference compound] | – | – | – | – | 1.2 ± 0.5 | – | – | –
16 | CNC(=C[N+](=O)[O-])NCCSCc1ccc(CN(C)C)o1 [Ranitidine, reference compound] | – | – | – | CNS − (CNS − (low BBB permeability predicted), Pe (10^−6 cm∙s^−1) < 2.0) | 0.4 ± 0.3 | – | – | –
17 | COc1ccccc1N1CCN(CCCN2C(=O)CCc3ccccc32)CC1 [USC-D301] | – | – | – | – | – | 7.8 | 6.4 | –
18 | CCc1cc(Cl)c(OC)c(C(=O)NC[C@@H]2CCCN2CC)c1O [eticlopride] | – | – | – | – | – | – | – | 0.1
